Measured values as given in patent US6015823A, “4-Cyclohexylphenyl-oxazolines and their use for controlling animal pests” (Bayer Aktiengesellschaft, priority 1996, dated 2000).
Read-outs that look alike come from different tables or passages of the source.

What was measured:
[1] = logp: n-octanol/water partition coefficient by reversed phase HPLC; assay type: physicochemical; settings: h2o/ch3cn, read-out: logp (logarithm to base ten of the n-octanol/water partition coefficient)
Source text: *) logp: Logarithm to base ten of the n-octanol/water partition coefficient, determined by reversed phase HPLC analysis using H2 O/CH3 CN.
*^) logp: Logarithm to base ten of the noctanol/water partition
coefficient, determined by reversed phase HPLC analysis using H2

[2] = tested on: common spider mite (Tetranychus urticae); test: Tetranychus test (OP resistant/dip treatment); assay type: in vivo; settings: Tetranychus urticae, 312 h, read-out: destruction in %
Description: Tetranychus test (OP resistant/dip treatment)
Solvent: 3 parts by weight of dimethylformamide
(§1) Emulsifier: 1 part by weight of alkylaryl polyglycol ether
To produce a suitable preparation of active compound, 1 part by weight of active compound is mixed with the stated amount of solvent and the stated amount of emulsifier, and the concentrate is diluted with emulsifier-containing water to the desired concentrations.
Bean plants (Phaseolus vulgaris) which are heavily infested by all stages of the common spider mite (Tetranychus urticae) are dipped into the active compound preparation of the desired concentration.
After the desired period of time, the activity in % is determined. 100% means that all the spider mites have been killed; 0% means that none of the spider mites have been killed.

[3] = tested on: mustard beetle larvae (Phaedon cochleariae); test: Phaedon larvae test; assay type: in vivo; settings: Phaedon cochleariae, 168 h; active compound concentration 0.01%, after 7 days; read-out: destruction in %
Description: (§2) Solvent: 7 parts by weight of dimethylformamide
as §1
(§3) To produce a suitable preparation of active compound, I part by weight of active compound is mixed with the stated amount of solvent and the stated amount of emulsifier, and the concentrate is diluted with water to the desired concentration.
Cabbage leaves (Brassica oleracea) are treated by being dipped into the active compound preparation of the desired concentration and are infested with mustard beetle larvae (Phaedon cochleariae), while the leaves are still moist.
After the desired period of time, the destruction in % is determined. 100% means that all the beetle larvae have been killed; 0% means that none of the beetle larvae have been killed.

[4] = tested on: caterpillars of the owlet moth (Spodoptera frugiperda); test: Spodoptera frugiperda test; assay type: in vivo; settings: Spodoptera frugiperda, 168 h; active compound concentration 0.1%, after 7 days; read-out: destruction in %
Description: Spodoptera frugiperda test
as §2, §1, §3
Cabbage leaves (Brassica oleracea) are treated by being dipped into the active compound preparation of the desired concentration and are infested with caterpillars of the owlet moth (Spodoptera frugiperda), while the leaves are still moist.
After the desired period of time, the destruction in % is determined. 100% means that all the caterpillars have been killed; 0% means that none of the caterpillars have been killed.

[5] = A isomer (possible geometric isomer)
[6] = B isomer (possible geometric isomer)

Row | SMILES | chromatographic logP [1] | chromatographic logP [1, 5] | chromatographic logP [1, 6] | other results
1 | OC1CCC(c2ccc(C3COC(c4c(F)cccc4F)=N3)cc2)CC1 (single isomer, unassigned) [Example 2, 2-(2,6-difluorophenyl)-4-[4-(4-hydroxycyclohexyl)phenyl]-1,3-oxazoline] | 2.53 |  |  | 
2 | O=C1CCC(c2ccc(C(CCl)NC(=O)c3c(F)cccc3F)cc2)CC1 (stereo not drawn) [2-(2,6-difluorobenzoylamido)-2-[4-(4-oxo-cyclohexyl)phenyl]-chloroethane] | 2.54 |  |  | 
3 | CCCOc1ccc(-c2ccc(C3COC(c4c(F)cccc4F)=N3)cc2)cc1 (stereo not drawn) [(F), reference compound] |  |  |  | mortality at 0.0001 % [2]: 45%
4 | ON=C1CCC(c2ccc(C3COC(c4c(F)cccc4F)=N3)cc2)CC1 (stereo not drawn) [Example 3, 2-(2,6-difluorophenyl)-4-[4-(4-oximino-cyclohexyl)phenyl]-1,3-oxazoline] | 2.57 |  |  | 
5 | OC1CCC(c2ccc(C3COC(c4c(F)cccc4F)=N3)cc2)CC1 (stereo not drawn) [Example 7] | 2.74 |  |  | 
6 | COC1(OC)CCC(c2ccc(C3COC(c4c(F)cccc4F)=N3)cc2)CC1 (stereo not drawn) [Example 8] | 3.8 |  |  | mortality at 0.01 % [3]: 90%
7 | CCC(C)ON=C1CCC(c2ccc(C3COC(c4c(F)cccc4F)=N3)cc2)CC1 (stereo not drawn) [Example 9] | 4.96 |  |  | mortality at 0.01 % [3]: 100%; mortality at 0.1 % [4]: 100%; mortality at 0.0001 % [2]: 98%
8 | Fc1cccc(F)c1C1=NC(c2ccc(C3CCC4(CC3)OCC(c3cccc(Cl)c3)O4)cc2)CO1 (stereo not drawn) [Example 10] | 5.22 |  |  | mortality at 0.01 % [3]: 100%; mortality at 0.1 % [4]: 100%; mortality at 0.0001 % [2]: 98%
9 | Fc1cccc(F)c1C1=NC(c2ccc(C3CCC4(CC3)OCCO4)cc2)CO1 (stereo not drawn) [Example 11] | 3.46 |  |  | 
10 | Fc1cccc(F)c1C1=NC(c2ccc(C3CCC(=NOCc4ccccc4)CC3)cc2)CO1 (stereo not drawn) [Example 12] | 4.7 |  |  | mortality at 0.0001 % [2]: 98%
11 | CCCCCCCCCCCCCCCC1COC2(CCC(c3ccc(C4COC(c5c(F)cccc5F)=N4)cc3)CC2)O1 (stereo not drawn) [Example 18] | 9 |  |  | 
12 | CCCCOC1(OCCCC)CCC(c2ccc(C3COC(c4c(F)cccc4F)=N3)cc2)CC1 (stereo not drawn) [Example 19] |  | 6.77 | 6.86 | mortality at 0.1 % [4]: 100%; mortality at 0.0001 % [2]: 98%
13 | Fc1cccc(F)c1C1=NC(c2ccc(C3CCC(=NOCc4ccc(C(F)(F)F)cc4Cl)CC3)cc2)CO1 (stereo not drawn) [Example 20] | 5.91 |  |  | mortality at 0.01 % [3]: 100%; mortality at 0.0001 % [2]: 98%
14 | Fc1cccc(F)c1C1=NC(c2ccc(C3CCC(=NOCc4ccccc4Cl)CC3)cc2)CO1 (stereo not drawn) [Example 22] | 5.21 |  |  | mortality at 0.0001 % [2]: 98%
15 | CC(C)(C)c1ccc(C2COC3(CCC(c4ccc(C5COC(c6c(F)cccc6F)=N5)cc4)CC3)O2)cc1 (stereo not drawn) [Example 23] | 6.16 |  |  | mortality at 0.0001 % [2]: 98%
16 | Fc1cccc(F)c1C1=NC(c2ccc(C3CCC4(CC3)OCC(c3ccccc3Cl)O4)cc2)CO1 (stereo not drawn) [Example 24] | 5.6 |  |  | mortality at 0.0001 % [2]: 98%
17 | Fc1cccc(F)c1C1=NC(c2ccc(C3CCC4(CC3)OCC(c3cccc(Cl)c3Cl)O4)cc2)CO1 (stereo not drawn) [Example 25] | 6.07 |  |  | mortality at 0.0001 % [2]: 98%
18 | CC1CC(C)(C)OC2(CCC(c3ccc(C4COC(c5c(F)cccc5F)=N4)cc3)CC2)O1 (stereo not drawn) [Example 26] |  | 5.12 | 5.19 | 
19 | CCC1COC2(CCC(c3ccc(C4COC(c5c(F)cccc5F)=N4)cc3)CC2)O1 (stereo not drawn) [Example 27] | 4.43 |  |  | 
20 | CCCC1COC2(CCC(c3ccc(C4COC(c5c(F)cccc5F)=N4)cc3)CC2)O1 (stereo not drawn) [Example 28] | 4.52 |  |  | 
21 | CC1CCOC2(CCC(c3ccc(C4COC(c5c(F)cccc5F)=N4)cc3)CC2)O1 (stereo not drawn) [Example 29] |  | 3.95 | 3.98 | 
22 | CCCCC1COC2(CCC(c3ccc(C4COC(c5c(F)cccc5F)=N4)cc3)CC2)O1 (stereo not drawn) [Example 30] |  | 5.35 | 5.4 | 
23 | CC1CC(C)OC2(CCC(c3ccc(C4COC(c5c(F)cccc5F)=N4)cc3)CC2)O1 (stereo not drawn) [Example 31] |  | 4.52 | 4.84 | 
24 | Fc1cccc(F)c1C1=NC(c2ccc(C3CCC4(CC3)OCCCO4)cc2)CO1 (stereo not drawn) [Example 32] | 3.47 |  |  | 
25 | CC1(C)COC2(CCC(c3ccc(C4COC(c5c(F)cccc5F)=N4)cc3)CC2)OC1 (stereo not drawn) [Example 33] | 4.5 |  |  | 
26 | CCCCCCCCC1COC2(CCC(c3ccc(C4COC(c5c(F)cccc5F)=N4)cc3)CC2)O1 (stereo not drawn) [Example 34] |  | 7.19 | 7.28 | 

More lines, main results first:

Row | chromatographic logP [1] | chromatographic logP [1, 5] | chromatographic logP [1, 6] | SMILES | other results
27 | 4.95 |  |  | CCCCON=C1CCC(c2ccc(C3COC(c4c(F)cccc4F)=N3)cc2)CC1 (stereo not drawn) [Example 36] | 
28 | 5.46 |  |  | CCCC1(C)COC2(CCC(c3ccc(C4COC(c5c(F)cccc5F)=N4)cc3)CC2)OC1 (stereo not drawn) [Example 37] | 
29 | 5.4 |  |  | CCC1(CC)COC2(CCC(c3ccc(C4COC(c5c(F)cccc5F)=N4)cc3)CC2)OC1 (stereo not drawn) [Example 38] | 
30 |  | 5.36 | 5.51 | Fc1cccc(F)c1C1=NC(c2ccc(C3CCC4(CC3)OCC(c3ccc(Br)cc3)O4)cc2)CO1 (stereo not drawn) [Example 39] | 
31 | 5.11 |  |  | CC1(c2ccccc2)COC2(CCC(c3ccc(C4COC(c5c(F)cccc5F)=N4)cc3)CC2)OC1 (stereo not drawn) [Example 40] | 
32 |  | 4.73 | 4.75 | Fc1cccc(F)c1C1=NC(c2ccc(C3CCC4(CC3)OCC(COc3ccccc3)O4)cc2)CO1 (stereo not drawn) [Example 41] | 
33 |  | 5.44 | 5.48 | Cc1cc(C)cc(OCC2COC3(CCC(c4ccc(C5COC(c6c(F)cccc6F)=N5)cc4)CC3)O2)c1 (stereo not drawn) [Example 42] | 
34 |  | 4.77 | 4.86 | Fc1cccc(F)c1C1=NC(c2ccc(C3CCC4(CC3)OCC(c3c(F)cccc3F)O4)cc2)CO1 (stereo not drawn) [Example 43] | 
35 | 4.61 |  |  | COc1ccc(C2COC3(CCC(c4ccc(C5COC(c6c(F)cccc6F)=N5)cc4)CC3)OC2)cc1 (stereo not drawn) [Example 44] | 
36 |  | 5.96 | 6.2 | Fc1cccc(F)c1C1=NC(c2ccc(C3CCC4(CC3)OCC(Br)(c3ccc(Cl)cc3)O4)cc2)CO1 (stereo not drawn) [Example 45] | 
37 |  | 5.1 | 5.16 | Fc1cccc(F)c1C1=NC(c2ccc(C3CCC4(CC3)OCC(COc3ccc(Cl)cc3)O4)cc2)CO1 (stereo not drawn) [Example 46] | 
38 | 6.15 |  |  | CC(C)C1(c2ccc(Cl)cc2)COC2(CCC(c3ccc(C4COC(c5c(F)cccc5F)=N4)cc3)CC2)OC1 (stereo not drawn) [Example 47] | 
39 | 4.21 |  |  | C=CCOCC1COC2(CCC(c3ccc(C4COC(c5c(F)cccc5F)=N4)cc3)CC2)O1 (stereo not drawn) [Example 48] | 
40 |  | 3.57 | 3.6 | COCC1COC2(CCC(c3ccc(C4COC(c5c(F)cccc5F)=N4)cc3)CC2)O1 (stereo not drawn) [Example 49] | 
41 | 3.89 |  |  | CC1COC2(CCC(c3ccc(C4COC(c5c(F)cccc5F)=N4)cc3)CC2)O1 (stereo not drawn) [Example 50] | 
42 |  | 4.97 | 5 | CCCCOCC1COC2(CCC(c3ccc(C4COC(c5c(F)cccc5F)=N4)cc3)CC2)O1 (stereo not drawn) [Example 51] | 
43 | 3.99 |  |  | CC1COC2(CCC(c3ccc(C4COC(c5c(F)cccc5F)=N4)cc3)CC2)OC1 (stereo not drawn) [Example 52] | 
44 |  | 5.23 | 5.37 | CC=CC1OC2(CCC(c3ccc(C4COC(c5c(F)cccc5F)=N4)cc3)CC2)OC1C=CC (stereo not drawn) [Example 53] | 
45 |  | 5.65 | 5.7 | C=CCCCCC1COC2(CCC(c3ccc(C4COC(c5c(F)cccc5F)=N4)cc3)CC2)O1 (stereo not drawn) [Example 54] | 
46 | 4.16 |  |  | C=CCON=C1CCC(c2ccc(C3COC(c4c(F)cccc4F)=N3)cc2)CC1 (stereo not drawn) [Example 55] | 
47 | 3.6 |  |  | CON=C1CCC(c2ccc(C3COC(c4c(F)cccc4F)=N3)cc2)CC1 (stereo not drawn) [Example 56] | 
48 | 3.09 |  |  | O=C1CCC(c2ccc(C3COC(c4c(F)cccc4Cl)=N3)cc2)CC1 (stereo not drawn) [Example 57] | 
49 |  | 4.78 | 4.87 | Fc1cccc(F)c1C1=NC(c2ccc(C3CCC4(CC3)OCC(c3ccccc3)O4)cc2)CO1 (stereo not drawn) [Example 58] | 
50 | 5.14 |  |  | Fc1cccc(F)c1C1=NC(c2ccc(C3CCC4(CC3)OCC(c3c(F)cccc3Cl)O4)cc2)CO1 (stereo not drawn) [Example 59] | 
51 | 5.65 |  |  | Fc1cccc(F)c1C1=NC(c2ccc(C3CCC4(CC3)OCC(c3ccc(Cl)c(Cl)c3)O4)cc2)CO1 (stereo not drawn) [Example 60] | 
